Test systems include UO-31 renal; K-562 leukemia; NCI-H226 lung; COLO 205 colon; NCI-H460 lung; A549 NSCLC; HOP-62 NSCLC; UACC-257 melanoma; RPMI-8226 leukemia; MDA-MB-231 breast.
Common to all, as to test: NCI anticancer screen, dose series, 48 h

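Each compound was tested at five concentrations against cells in 96-well plates for 48 hours. GI50 is the concentration that inhibits growth by half. At the TGI there is no net growth.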 Where only a bound is given, the exact number is not on record here.

Turning to `CCOc1ccc(-n2cc(-c3ccc(N(C)C)cc3)[n+]3c2CCCCC3)cc1`, the GI50 with UO-31 renal is 4.94 µM; in the assay on K-562 leukemia it was 0.128 µM; in the assay with NCI-H226 lung, 1.56 µM; in the assay with COLO 205 colon it was 0.197 µM; in the assay on NCI-H460 lung, 0.349 µM; with A549 NSCLC it was 1.88 µM. Moreover, the GI50 with HOP-62 NSCLC is 2.3 µM; in the assay with UACC-257 melanoma, 0.12 µM; in the assay on RPMI-8226 leukemia, 0.0567 µM; in the assay with MDA-MB-231 breast, 1.93 µM. Further, the TGI in the assay on UO-31 renal is 68.5 µM; in the assay with K-562 leukemia it was above 100 µM; in the assay with NCI-H226 lung it was above 100 µM; in the assay on COLO 205 colon it was 1.73 µM; in the assay with NCI-H460 lung, above 38 µM; in the assay on A549 NSCLC it was above 100 µM. The TGI was above 77.9 µM in the assay with HOP-62 NSCLC, 2.44 µM in the assay with UACC-257 melanoma, above 24.9 µM with RPMI-8226 leukemia and above 27.8 µM with MDA-MB-231 breast.
Consider `Nc1ncnc2c1c(-c1ccc(Oc3ccccc3)cc1)nn2C[C@H]1SSC[C@H]1O`, for which the GI50 was 0.468 µM in the assay with UO-31 renal; 0.197 µM with K-562 leukemia; 1.43 µM in the assay with NCI-H226 lung; 0.464 µM in the assay with COLO 205 colon; 0.0233 µM with NCI-H460 lung; 0.394 µM in the assay on A549 NSCLC. The GI50 with HOP-62 NSCLC is 0.039 µM; with UACC-257 melanoma it was 0.208 µM; in the assay with RPMI-8226 leukemia, 1.95 µM; in the assay on MDA-MB-231 breast, 1.33 µM. The TGI in the assay with UO-31 renal came to 2.77 µM; in the assay on K-562 leukemia, 3.1 µM; in the assay on NCI-H226 lung, 3.42 µM; in the assay with COLO 205 colon it was 1.8 µM; in the assay with NCI-H460 lung, 0.0565 µM; with A549 NSCLC it was 2.07 µM. The TGI with HOP-62 NSCLC amounted to 0.893 µM; in the assay with UACC-257 melanoma it was 1.36 µM; with RPMI-8226 leukemia, 9.13 µM; in the assay on MDA-MB-231 breast, 3.71 µM.
For `COc1ccc(-n2cc(-c3ccc(F)cc3)[nH]c2=O)cc1OC`, the GI50 is above 100 µM with UO-31 renal; 7.5 µM in the assay with K-562 leukemia; above 100 µM in the assay on NCI-H226 lung; above 100 µM in the assay on COLO 205 colon; above 100 µM in the assay with NCI-H460 lung; above 100 µM in the assay with A549 NSCLC. Besides, the GI50 in the assay with HOP-62 NSCLC was 54.7 µM; in the assay on UACC-257 melanoma, above 100 µM; with RPMI-8226 leukemia, above 100 µM; in the assay with MDA-MB-231 breast, above 100 µM. In addition, the TGI in the assay on UO-31 renal, in the assay with K-562 leukemia, with NCI-H226 lung, with COLO 205 colon, in the assay on NCI-H460 lung and with A549 NSCLC was above 100 µM each time. Moreover, the TGI in the assay on HOP-62 NSCLC, with UACC-257 melanoma, in the assay on RPMI-8226 leukemia and in the assay on MDA-MB-231 breast was above 100 µM throughout.
For the compound `Cc1cc(=O)[nH]c2c1C(=O)C(=O)C=C2`, the GI50 with UO-31 renal is 77.3 µM; in the assay on K-562 leukemia it was 34.3 µM; with NCI-H226 lung, 28.6 µM; in the assay on COLO 205 colon, above 100 µM; with NCI-H460 lung, 27.1 µM; with A549 NSCLC, 81.9 µM. The GI50 in the assay with HOP-62 NSCLC is 17.6 µM; in the assay with UACC-257 melanoma, above 100 µM; with RPMI-8226 leukemia it was 39 µM; in the assay on MDA-MB-231 breast, 21.2 µM. The TGI in the assay on UO-31 renal was above 100 µM; with K-562 leukemia, above 100 µM; in the assay on NCI-H226 lung, 73 µM; in the assay on COLO 205 colon, above 100 µM; with NCI-H460 lung, 74 µM; in the assay on A549 NSCLC, above 100 µM. Besides, the TGI in the assay on HOP-62 NSCLC is 35.7 µM; in the assay with UACC-257 melanoma, above 100 µM; in the assay on RPMI-8226 leukemia, above 100 µM; with MDA-MB-231 breast, 45.2 µM.
As to `Cn1cc(C2=C(c3cn(CCCN/C(N)=N\[N+](=O)[O-])c4ccccc34)C(=O)NC2=O)c2ccccc21`, the GI50 is 8.71 µM with UO-31 renal; 2.95 µM with K-562 leukemia; 4.56 µM in the assay on NCI-H226 lung; 1.24 µM with COLO 205 colon; 5.9 µM in the assay on NCI-H460 lung; 8.52 µM in the assay with A549 NSCLC. For the same compound, the GI50 in the assay with HOP-62 NSCLC was 3.89 µM; in the assay with UACC-257 melanoma, 7.12 µM; with RPMI-8226 leukemia, 5.64 µM; in the assay with MDA-MB-231 breast, 3.8 µM. The TGI with UO-31 renal is 24.7 µM; in the assay on K-562 leukemia, above 22.5 µM; in the assay with NCI-H226 lung, above 19.1 µM; with COLO 205 colon, 6.44 µM; in the assay on NCI-H460 lung, 20.6 µM; with A549 NSCLC it was above 25 µM. Moreover, the TGI is above 16.6 µM in the assay on HOP-62 NSCLC, 21.8 µM in the assay on UACC-257 melanoma, 14.8 µM with RPMI-8226 leukemia and 16.5 µM in the assay with MDA-MB-231 breast.
For the compound `O=C(Nc1ccc(-n2cc(-c3ccncc3)c(-c3ccc(Cl)c(O)c3)n2)cc1)c1ccc(Cl)c(C(F)(F)F)c1`, the GI50 is 0.684 µM with UO-31 renal; 0.404 µM with K-562 leukemia; 16.3 µM in the assay on NCI-H226 lung; 1.94 µM in the assay with COLO 205 colon; 1.43 µM with NCI-H460 lung; 5.41 µM with A549 NSCLC. For the same compound, the GI50 with HOP-62 NSCLC was 0.622 µM; in the assay on UACC-257 melanoma it was 3.27 µM; in the assay with RPMI-8226 leukemia it was 0.426 µM; in the assay with MDA-MB-231 breast, 0.322 µM. Also, the TGI in the assay with UO-31 renal was 2.42 µM; in the assay with K-562 leukemia it was 4.09 µM; with NCI-H226 lung, above 71 µM; in the assay on COLO 205 colon, 4.64 µM; with NCI-H460 lung, 11.1 µM; in the assay with A549 NSCLC, above 31.4 µM. Also, the TGI in the assay with HOP-62 NSCLC came out at 2.2 µM; in the assay on UACC-257 melanoma, 39.9 µM; with RPMI-8226 leukemia, 2.68 µM; with MDA-MB-231 breast it was 1.48 µM.

The record behind these values is PubChem BioAssay (NCI).
